Patent US6479435B1, “Diaryl ethers and processes for their preparation and herbicidal and desiccant compositions containing them” (ISK Americas Incorporated, priority 1997, dated 2002)

Key:
Format in all cases: in vivo
[1] = test system: common ragweed (Ambrosia artemisiifolia L., AMBEL); assay: Post-emerge greenhouse herbicide test, phytotoxicity rating; settings: 14 days after application, scale 0-100
Procedure, shortened: (§1)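 Plants at the 2-3 leaf stage, sown 8-21 days earlier, were track-sprayed post-emergence with compound in acetone plus 0.25% v/v non-ionic surfactant at 63-1000 g ai/ha (187 l/ha). Damage was rated at 14 days on a 0-100 scale (0 none, 100 all plants dead), for both crop injury and weed control.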

[2] = test system: upland rice (Oryza sp., var.Tebonnet, RICE); assay: Pre-emerge greenhouse test, crop damage rating; settings: 14 days after application, rating scale 0-100
Procedure, shortened: (§2)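 Seeds sown in sandy loam one day before track-sprayer application of acetone solutions at 125–1000 g ai/ha (187 l/ha), then surface-watered to incorporate and bottom-watered. Injury scored visually at 14 days on a 0–100 scale (0 no damage, 100 complete death).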

[3] = test system: field corn (Zea mays L., var. Dekalb 535, CORN); assay: Pre-emerge greenhouse test, crop damage rating; settings: 14 days after application, rating scale 0-100
Procedure, shortened: as §2

[4] = test system: common ragweed (Ambrosia artemisiifolia L., AMBEL); assay: Pre-emerge greenhouse herbicide test, phytotoxicity rating; settings: 14 days after application, rating scale 0-100
Procedure, shortened: as §2

[5] = test system: lambsquarters (Chenopodium album, CHEAL); assay: as above; settings: 14 days after application, rating scale 0-100
Procedure, shortened: as §2

[6] = test system: barnyardgrass (Echinochloa crusgalli, ECHCG); assay: as above; settings: 14 days after application, rating scale 0-100
Procedure, shortened: as §2

[7] = test system: Johnsongrass (Sorghum halepense, SORHA); assay: as above; settings: 14 days after application, rating scale 0-100
Procedure, shortened: as §2

[8] = test system: large crabgrass (Digitaria sanguinalis, DIGSA); assay: as above; settings: 14 days after application, rating scale 0-100
Procedure, shortened: as §2

[9] = test system: green foxtail (Setaria viridis, SETVI); assay: as above; settings: 14 days after application, rating scale 0-100
Procedure, shortened: as §2

[10] = test system: redroot pigweed (Amaranthus retroflexus, AMARE); assay: as above; settings: 14 days after application, rating scale 0-100
Procedure, shortened: as §2

[11] = test system: ivyleaf morningglory (Ipomoea hederacea, IPOHE); assay: as above; settings: 14 days after application, rating scale 0-100
Procedure, shortened: as §2

[12] = test system: sicklepod (Cassia obtusifolia, CASOB); assay: as above; settings: 14 days after application, rating scale 0-100
Procedure, shortened: as §2

[13] = test system: velvetleaf (Abutilon theophrasti, ABUTH); assay: as above; settings: 14 days after application, rating scale 0-100
Procedure, shortened: as §2

[14] = test system: soybean (Glycine max L., var. Pella 86, SOY); assay: Post-emerge greenhouse test, crop damage rating; parameters: key to crop damage rating SOY: 0-100 scale: 0 = no damage, 100 = complete death of all plants; settings: 14 days after application, scale 0-100
Procedure, shortened: as §1

[15] = test system: lambsquarters (Chenopodium album, CHEAL); assay: Post-emerge greenhouse herbicide test, phytotoxicity rating; settings: 14 days after application, scale 0-100
Procedure, shortened: as §1

[16] = test system: barnyardgrass (Echinochloa crusgalli, ECHCG); assay: as above; settings: 14 days after application, scale 0-100
Procedure, shortened: as §1

[17] = test system: Johnsongrass (Sorghum halepense, SORHA); assay: as above; settings: 14 days after application, scale 0-100
Procedure, shortened: as §1

[18] = test system: large crabgrass (Digitaria sanguinalis, DIGSA); assay: as above; settings: 14 days after application, scale 0-100
Procedure, shortened: as §1

[19] = test system: green foxtail (Setaria viridis, SETVI); assay: as above; settings: 14 days after application, scale 0-100
Procedure, shortened: as §1

[20] = test system: redroot pigweed (Amaranthus retroflexus, AMARE); assay: as above; settings: 14 days after application, scale 0-100
Procedure, shortened: as §1

[21] = test system: ivyleaf morningglory (Ipomoea hederacea, IPOHE); assay: as above; settings: 14 days after application, scale 0-100
Procedure, shortened: as §1

[22] = test system: sicklepod (Cassia obtusifolia, CASOB); assay: as above; settings: 14 days after application, scale 0-100
Procedure, shortened: as §1

[23] = test system: velvetleaf (Abutilon theophrasti, ABUTH); assay: as above; settings: 14 days after application, scale 0-100
Procedure, shortened: as §1

[24] = test system: soybean (Glycine max L., var. Pella 86, SOY); assay: Pre-emerge greenhouse test, crop damage rating; parameters: key to SOY crop damage rating: 0 = no damage, 100 = complete death of all plants; settings: 14 days after application, rating scale 0-100
Procedure, shortened: as §2

[25] = test system: upland rice (Oryza sp., var.Tebonnet, RICE); assay: Post-emerge greenhouse test, crop damage rating; settings: 14 days after application, scale 0-100
Procedure, shortened: as §1

[26] = test system: field corn (Zea mays L., var. Dekalb 535, CORN); assay: Post-emerge greenhouse test, crop damage rating; settings: 14 days after application, scale 0-100
Procedure, shortened: as §1

O=c1n(-c2cc(Oc3nc(Cl)ccc3C(F)(F)F)c(Cl)cc2F)c(=S)n2n1CCCC2 [Compound 8-27]
phytotoxicity rating AMBEL ([1]; rate 63 g ai/ha): 60
phytotoxicity rating AMBEL ([1]; rate 500 g ai/ha): 85
RICE crop damage rating ([2]; Rate 125 g al/ha): 0
RICE crop damage rating ([2]; Rate 500 g al/ha): 10
CORN crop damage rating ([3]; Rate 125 g al/ha): 0
CORN crop damage rating ([3]; Rate 500 g al/ha): 0
AMBEL phytotoxicity rating ([4]; Rate 125 g al/ha): 0
AMBEL phytotoxicity rating ([4]; Rate 500 g al/ha): 0
CHEAL phytotoxicity rating ([5]; Rate 125 g al/ha): 80
CHEAL phytotoxicity rating ([5]; Rate 500 g al/ha): 100
ECHCG phytotoxicity rating ([6]; Rate 125 g al/ha): 0
ECHCG phytotoxicity rating ([6]; Rate 500 g al/ha): 0
SORHA phytotoxicity rating ([7]; Rate 125 g al/ha): 0
SORHA phytotoxicity rating ([7]; Rate 500 g al/ha): 30
DIGSA phytotoxicity rating ([8]; Rate 125 g al/ha): 10
DIGSA phytotoxicity rating ([8]; Rate 500 g al/ha): 50
SETVI phytotoxicity rating ([9]; Rate 125 g al/ha): 60
SETVI phytotoxicity rating ([9]; Rate 500 g al/ha): 100
AMARE phytotoxicity rating ([10]; Rate 125 g al/ha): 100
AMARE phytotoxicity rating ([10]; Rate 500 g al/ha): 100
IPOHE phytotoxicity rating ([11]; Rate 125 g al/ha): 0
IPOHE phytotoxicity rating ([11]; Rate 500 g al/ha): 30
CASOB phytotoxicity rating ([12]; Rate 125 g al/ha): 0
CASOB phytotoxicity rating ([12]; Rate 500 g al/ha): 80
ABUTH phytotoxicity rating ([13]; Rate 125 g al/ha): 50
ABUTH phytotoxicity rating ([13]; Rate 500 g al/ha): 100
crop damage rating SOY ([14]; rate 63 g ai/ha): 70
crop damage rating SOY ([14]; rate 500 g ai/ha): 80
phytotoxicity rating CHEAL ([15]; rate 63 g ai/ha): 90
phytotoxicity rating CHEAL ([15]; rate 500 g ai/ha): 100
phytotoxicity rating ECHCG ([16]; rate 63 g ai/ha): 0
phytotoxicity rating ECHCG ([16]; rate 500 g ai/ha): 10
phytotoxicity rating SORHA ([17]; rate 63 g ai/ha): 30
phytotoxicity rating SORHA ([17]; rate 500 g ai/ha): 20
phytotoxicity rating DIGSA ([18]; rate 63 g ai/ha): 10
phytotoxicity rating DIGSA ([18]; rate 500 g ai/ha): 20
phytotoxicity rating SETVI ([19]; rate 63 g ai/ha): 50
phytotoxicity rating SETVI ([19]; rate 500 g ai/ha): 50
phytotoxicity rating AMARE ([20]; rate 63 g ai/ha): 90
phytotoxicity rating AMARE ([20]; rate 500 g ai/ha): 100
phytotoxicity rating IPOHE ([21]; rate 63 g ai/ha): 50
phytotoxicity rating IPOHE ([21]; rate 500 g ai/ha): 80
phytotoxicity rating CASOB ([22]; rate 63 g ai/ha): 30
phytotoxicity rating CASOB ([22]; rate 500 g ai/ha): 100
phytotoxicity rating ABUTH ([23]; rate 63 g ai/ha): 80
phytotoxicity rating ABUTH ([23]; rate 500 g ai/ha): 100
SOY crop damage rating ([24]; Rate 125 g al/ha): 0
SOY crop damage rating ([24]; Rate 500 g al/ha): 0
crop damage rating RICE ([25]; rate 63 g ai/ha): 0
crop damage rating RICE ([25]; rate 500 g ai/ha): 5
crop damage rating CORN ([26]; rate 63 g ai/ha): 5
crop damage rating CORN ([26]; rate 500 g ai/ha): 10
